Reference: US7572903B1, “Method of regulation of bacterial persister status” (priority 2005, dated 2009)
Like-named read-outs stand apart in the source and are kept apart here. Bridge positions count the residues as written; N and C are the ends. Square brackets hold non-standard residues; d marks the D form. Peptide text beside a SMILES is read from it. * marks the point of attachment. Ileψ(thiazoline)Cys = CC[C@H](C)[C@H](N)C1=N[C@H](C(=O)*)CS1; dOrn = NCCC[C@@H](N)C(=O)O

Tests used:
Type in all cases: cell-based, Escherichia coli
[1] = test system: E. coli K-12 C600::mTn5gusA-pgfp21; details: mid-log phase
Method: In the latter set of experiments reaction mixtures included nutrient broth (25% normal strength) in order to facilitate growth during the exposure. […] At various time intervals samples (0.1 mL) were removed and serially diluted either in sterile phosphate buffered saline (pH 7, 0.1M) or lecithin (2% w/v)—tween 80 (3% w/v) broth as a specific neutralizer of quaternary ammonium biocides (Wright, et al., J. App. Bacterial. 62:309-314, 1986). Samples of appropriate dilutions were plated, in triplicate, onto nutrient agar and colonies counted after 16 hour incubation at 37° C. Survival was expressed relative to untreated control suspensions.
(§1) When cells were required for culture and/or susceptibility determinations collections were made of discrete fractions of cells within the upper 1 and 5%, and the lower 1, 5 and 10% of fluorescence intensity. Control populations consisted of the entire population of cells having been passed through the cytometer and sorter. Cell sort rates of circa 10^3/sec were deployed enabling collection of circa 10^4-5 cfu within 10 minutes. Cell concentrations were adjusted from the cytometer count by dilution with fresh PBS. Suspensions of collected cells were used immediately for microbiological analysis.
Collections of poorly fluorescent cells from mid-log phase cultures were made and susceptibility re-determined towards tetradecylbenzalkonium chloride, and towards various other treatment agents.

[2] = test system: E. coli K-12 C600::mTn5gusA-pgfp21; experiment: Time-dependent survival of FACS-sorted fractions exposed to tetradecylbenzalkonium chloride
Method: In the latter set of experiments reaction mixtures included nutrient broth (25% normal strength) in order to facilitate growth during the exposure. This was necessary in order to get adequate killing by β-lactam antibiotics. At various time intervals samples (0.1 mL) were removed and serially diluted either in sterile phosphate buffered saline (pH 7, 0.1M) or lecithin (2% w/v)—tween 80 (3% w/v) broth as a specific neutralizer of quaternary ammonium biocides (Wright, et al., J. App. Bacterial. 62:309-314, 1986). Samples of appropriate dilutions were plated, in triplicate, onto nutrient agar and colonies counted after 16 hour incubation at 37° C. Survival was expressed relative to untreated control suspensions.
as §1
The FACS vantage was also deployed to separate populations of cells, from stationary phase cultures, corresponding to the lower (1, 5 and 10%) fluorescence intensity cells and the upper (1 and 5%) fluorescence intensity cells (FIG. 1). These cells were immediately subjected to exposure to tetradecyl-benzalkonium chloride (3.68 μg/mL) for various times up to 20 minutes. After neutralization in lecithin-tween 80 broth the numbers of surviving cells was determined by plate count. In all instances the shapes of the survival curves were non-linear indicating an initial rapid phase of killing followed by a plateau phase. […] Survival beyond 10 minutes exposure therefore reflected the presence of non-susceptible cells.

[3] = test system: E. coli CC118 overexpression and suppression mutants; experiment: Antimicrobial susceptibility of conditional overexpression and antisense suppression strains (cetrimide challenge); details: relative to parental E. coli CC118, 9 μg/ml cetrimide 1 h
Method: Conditional overexpression and anti-sense suppression strains of E. coli (Table 14) were grown as liquid cultures in nutrient broth. Expression of target sense and antisense sequences was induced by addition of IPTG (Bioline), during early exponential phase, to a final concentration of 0.1 mM. Cells were grown until mid-late exponential (1.75 h after IPTG addition) or to stationary phase (14.5 h after ITPG addition), and harvested by centrifugation (10,000 x g, 10 min) at 4° C. The supernatants were decanted and the pellets suspended into equal volumes of PBS. The centrifugation and washing steps were repeated twice, after which the pellets were re-suspended in PBS to an optical density (OD470 nm) of 1.0, corresponding to approximately 1-2×10^8 cfu/ml mid-exponential or stationary phase cells.
Cells were exposed to 9 μg/ml cetrimide USP for 1 hr in PBS with final concentration of 5×10^7 cells/ml. Controls without the addition of the biocide containing the same concentration of cells and PBS were run in parallel. Following incubation samples (0.1 ml) were removed and serially diluted in lecithin (2% w/v)—tween 80 (3% w/v) broth as a specific neutralizer of quaternary ammonium biocides (Wright, et al., J. Appd. Bacteriol, 62, 309-314, 1986). Samples of appropriate dilutions were plated, in triplicate, onto nutrient agar and colonies counted after 16 h incubation at 37° C. Survival was expressed relative to untreated control suspensions that were similarly treated with IPTG. […] The susceptibility of the parental strain E. coli (CC118 towards cetrimide USP was investigated in the same experiments and was used as a reference to determine the effect of overexpression and antisense suppression of target sequences.

[4] = test system: E. coli K-12 C600::mTn5gusA-pgfp21 intergenic knockouts; experiment: Susceptibility of putative intergenic knockouts towards cetrimide USP
From the text: Intergenic knockouts were made to E. coli K-12 C600::mTn5gusA-pgfp21 with respect to IG216, IG477, IG870, IG873, IG1602, IG1604 and IG1484 using the protocol described by Datsenko, et al. (Proceedings of the National Academy of Sciences of the United States of America 97, 6640-6645, 2000). Plasmid pKD3 was used as a template to generate PCR products with a selectable antibiotic resistance marker (chloramphenicol) and 40 nt homology extensions relating the genes flanking each targeted intergenic region. Modifications of the method included a 10-fold increase in the concentration of L-arabinose (10 mM) for induction of λ Red genes in the helper plasmid pKD46, and 50-fold increases in the amount of PCR product (500 ng) used to transform E. coli K-12 C600 containing pKD46. Further amendments to the method were associated with recovery of transformants following electroporation. […]
Putative intergenic knockouts were grown as liquid culture in nutrient broth, harvested at mid-exponential phase, washed in PBS as described in section 2.1 (a) and adjusted to 1×10^5 cfu/ml in PBS. […] The viability of cells in the antimicrobial and control tubes was monitored after 1 hour incubation at 37° C. at 200 rpm in an orbital shaker. […]

NCC[C@H](O)C(=O)N[C@@H]1C[C@H](N)[C@@H](O[C@H]2O[C@H](CN)[C@@H](O)[C@H](O)[C@H]2O)[C@H](O)[C@H]1O[C@H]1O[C@H](CO)[C@@H](O)[C@H](N)[C@H]1O [Amikacin, amikacin]
percentage survival relative to untreated controls ([1]; 0-5% FI fraction, amikacin 0.75 μg/ml, 1 hour, SD in parenthesis): 68 (17) % | percentage survival relative to untreated controls ([1]; 95-100% FI fraction, amikacin 0.75 μg/ml, 1 hour, SD in parenthesis): 32 (0) % | percentage survival relative to untreated controls ([1]; Control 0-100% fluorescence fraction, amikacin 0.75 μg/ml, 1 hour, SD of triplicate in parenthesis): 39 (3.0) %

CC[C@H](C)[C@H](N)C1=N[C@H](C(=O)N[C@@H](CC(C)C)C(=O)N[C@H](CCC(=O)O)C(=O)N[C@H](C(=O)N[C@H]2CCCCNC(=O)[C@H](CC(N)=O)NC(=O)[C@@H](CC(=O)O)NC(=O)[C@H](Cc3cnc[nH]3)NC(=O)[C@@H](Cc3ccccc3)NC(=O)[C@H]([C@@H](C)CC)NC(=O)[C@@H](CCCN)NC2=O)[C@@H](C)CC)CS1 [Bacitracin, bacitracin] ({Ileψ(thiazoline)Cys}-L[dE]IK[dOrn]I[dF]H[dD]N; lactam 4-C)
percentage survival relative to untreated controls ([1]; 0-5% FI fraction, bacitracin 0.7 mg/ml, 40 min, SD in parenthesis): 83 (1.5) % | percentage survival relative to untreated controls ([1]; 95-100% FI fraction, bacitracin 0.7 mg/ml, 40 min, SD in parenthesis): 34 (4.6) % | percentage survival relative to untreated controls ([1]; Control 0-100% fluorescence fraction, bacitracin 0.7 mg/ml, 40 min, SD in parenthesis): 57 (8.5) %

O=C(O)c1cn(C2CC2)c2cc(N3CCNCC3)c(F)cc2c1=O [Ciprofloxacin, ciprofloxacin]
percentage survival relative to untreated controls ([1]; 0-5% FI fraction, ciprofloxacin 0.05 μg/ml, 1 hour, SD in parenthesis): 44 (2.0) % | percentage survival relative to untreated controls ([1]; 95-100% FI fraction, ciprofloxacin 0.05 μg/ml, 1 hour, SD in parenthesis): 35 (3.6) % | percentage survival relative to untreated controls ([1]; Control 0-100% fluorescence fraction, ciprofloxacin 0.05 μg/ml, 1 hour, SD in parenthesis): 40 (0) %

Tetradecylbenzalkonium chloride
proportion of persister cells in the cell fraction ([2]; least intensely fluorescent cell fraction (1%), stationary phase, 3.68 μg/mL, exposure up to 20 minutes): > 80% | survival of cells ([2]; most fluorescently intense cells, stationary phase, 3.68 μg/mL, after 1 minute exposure): eradicated beyond detection | proportion of persisters in mid-log phase compared with stationary phase ([2]; poorly fluorescent cells from mid-log phase cultures): substantially reduced

cetrimide [Cetrimide USP]
Fold Change in persister fraction (fold increase) ([3]; strain lit (+), exponential phase, IPTG 0.1 mM 1.75 h): 3.05 fold | Fold Change in persister fraction (fold increase) ([3]; strain lit (−), exponential phase, IPTG 0.1 mM 1.75 h): 1.31 fold | Fold Change in persister fraction (fold decrease) ([3]; strain lit (−), stationary phase, IPTG 0.1 mM 14.5 h): 4.08 fold decrease | Fold Change in persister fraction (fold increase) ([3]; strain mcrA (+), exponential phase, IPTG 0.1 mM 1.75 h): 2.82 fold | Fold Change in persister fraction (fold increase) ([3]; strain pin (+), exponential phase, IPTG 0.1 mM 1.75 h): 10.38 fold | Fold Change in persister fraction (fold increase) ([3]; strain pin (−), exponential phase, IPTG 0.1 mM 1.75 h): 18.98 fold | Fold Change in persister fraction ([3]; strain pin (−), stationary phase, IPTG 0.1 mM 14.5 h): No persisters detected | Fold Change in persister fraction (fold decrease) ([3]; strain yagL (+), exponential phase, IPTG 0.1 mM 1.75 h): 1.01 fold | Fold Change in persister fraction (fold increase) ([3]; strain ykgK (+), exponential phase, IPTG 0.1 mM 1.75 h): 22.85 fold | Fold Change in persister fraction (fold decrease) ([3]; strain ykgK (−), exponential phase, IPTG 0.1 mM 1.75 h): 5.35 fold | Fold Change in persister fraction ([3]; strain ykgK (−), stationary phase, IPTG 0.1 mM 14.5 h): No persisters detected | Fold Change in persister fraction (fold decrease) ([3]; strain ykgM (+), exponential phase, IPTG 0.1 mM 1.75 h): 1.65 fold | Fold Change in persister fraction (fold decrease) ([3]; strain ykgM (−), exponential phase, IPTG 0.1 mM 1.75 h): 1.83 fold | Fold Change in persister fraction ([3]; strain ykgM (−), stationary phase, IPTG 0.1 mM 14.5 h): No persisters detected | percentage survival relative to untreated controls ([1]; 0-5% FI fraction, cetrimide USP 0.5 μg/ml, 1 hour, SD in parenthesis): 22 (3.7) % | percentage survival relative to untreated controls ([1]; 95-100% FI fraction, cetrimide USP 0.5 μg/ml, 1 hour, SD in parenthesis): 2.5 (0.97) % | percentage survival relative to untreated controls ([1]; Control 0-100% fluorescence fraction, cetrimide USP 0.5 μg/ml, 1 hour, SD in parenthesis): 18 (3.4) % | susceptibility of intergenic knockout clones compared with controls ([4]; IG216, IG873, IG1484 and IG1602 knockouts, at both the lower and higher treatment level): profoundly changed | susceptibility of intergenic knockout clones compared with controls ([4]; all developed clones (IG216, IG477, IG870, IG873, IG1602, IG1604, IG1484), 0.6 and 2.0 μg/ml, 1 hour): substantially reduced
